Tests used:
[1] = biological target: T1, Sodium-dependent noradrenaline transporter (Homo sapiens, UniProt P23975); test: Inhibition of norepinephrine uptake at human NET expressed in MDCK-Net6 cells at 1 uM; format: cell-based
[2] = biological target: Sodium-dependent dopamine transporter (Homo sapiens) (UniProt Q01959); test: Displacement of [3H]WIN-35428 from human recombinant DAT expressed in CHO cells at 10 uM; format: cell-based
Homo sapiens = species: Homo sapiens; test: Ratio of IC50 for human SERT to IC50 for human NET
[3] = biological target: T1, Sodium-dependent noradrenaline transporter
[4] = biological target: T2, Sodium-dependent serotonin transporter (Homo sapiens, UniProt P31645); format: cell-based, JAR
Target sequence in this assay (P31645 whole entry): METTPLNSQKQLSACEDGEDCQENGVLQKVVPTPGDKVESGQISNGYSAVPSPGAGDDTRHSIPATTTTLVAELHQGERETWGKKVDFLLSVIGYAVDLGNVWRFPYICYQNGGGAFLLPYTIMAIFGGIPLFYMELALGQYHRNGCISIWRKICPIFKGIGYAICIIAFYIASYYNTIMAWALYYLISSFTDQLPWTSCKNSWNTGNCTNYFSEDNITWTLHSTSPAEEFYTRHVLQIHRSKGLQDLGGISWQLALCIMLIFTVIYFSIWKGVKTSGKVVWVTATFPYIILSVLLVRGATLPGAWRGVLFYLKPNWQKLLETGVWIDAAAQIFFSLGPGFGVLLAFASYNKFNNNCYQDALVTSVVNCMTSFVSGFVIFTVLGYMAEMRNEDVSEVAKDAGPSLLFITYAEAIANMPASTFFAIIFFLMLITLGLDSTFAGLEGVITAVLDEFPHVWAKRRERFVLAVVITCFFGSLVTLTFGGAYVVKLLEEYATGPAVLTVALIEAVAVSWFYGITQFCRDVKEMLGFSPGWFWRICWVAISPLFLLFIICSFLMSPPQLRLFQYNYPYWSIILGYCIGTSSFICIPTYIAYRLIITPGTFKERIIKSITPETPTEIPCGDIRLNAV

[5] = biological target: T2, Sodium-dependent serotonin transporter; test: Inhibition of serotonin uptake at human SERT expressed in JAR cells at 1 uM; format: cell-based
Target sequence in this assay (P31645 whole entry, looked up): as the sequence (P31645 whole entry) above

[6] = biological target: T2, Sodium-dependent serotonin transporter; test: Inhibition of serotonin uptake at human SERT expressed in JAR cells at 10 uM; format: cell-based
Target sequence in this assay (P31645 whole entry, looked up): as the sequence (P31645 whole entry) above

T1 sequence (P23975 whole entry): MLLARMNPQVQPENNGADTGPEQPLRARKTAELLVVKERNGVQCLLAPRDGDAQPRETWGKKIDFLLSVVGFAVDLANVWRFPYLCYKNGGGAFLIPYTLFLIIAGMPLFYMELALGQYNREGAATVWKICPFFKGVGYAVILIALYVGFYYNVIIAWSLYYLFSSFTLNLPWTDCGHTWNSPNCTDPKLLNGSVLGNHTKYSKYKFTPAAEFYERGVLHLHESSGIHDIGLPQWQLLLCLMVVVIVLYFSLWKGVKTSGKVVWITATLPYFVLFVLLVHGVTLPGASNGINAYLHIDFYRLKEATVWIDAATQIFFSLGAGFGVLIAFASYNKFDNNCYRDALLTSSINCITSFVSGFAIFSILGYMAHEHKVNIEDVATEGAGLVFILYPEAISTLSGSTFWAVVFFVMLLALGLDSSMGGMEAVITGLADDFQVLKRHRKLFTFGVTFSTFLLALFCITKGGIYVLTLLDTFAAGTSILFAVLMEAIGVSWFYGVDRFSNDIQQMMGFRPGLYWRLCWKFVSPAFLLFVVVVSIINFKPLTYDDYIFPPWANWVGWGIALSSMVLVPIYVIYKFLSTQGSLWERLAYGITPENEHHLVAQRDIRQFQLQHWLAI
Chain of Sodium-dependent dopamine transporter (Homo sapiens) (Q01959 whole entry): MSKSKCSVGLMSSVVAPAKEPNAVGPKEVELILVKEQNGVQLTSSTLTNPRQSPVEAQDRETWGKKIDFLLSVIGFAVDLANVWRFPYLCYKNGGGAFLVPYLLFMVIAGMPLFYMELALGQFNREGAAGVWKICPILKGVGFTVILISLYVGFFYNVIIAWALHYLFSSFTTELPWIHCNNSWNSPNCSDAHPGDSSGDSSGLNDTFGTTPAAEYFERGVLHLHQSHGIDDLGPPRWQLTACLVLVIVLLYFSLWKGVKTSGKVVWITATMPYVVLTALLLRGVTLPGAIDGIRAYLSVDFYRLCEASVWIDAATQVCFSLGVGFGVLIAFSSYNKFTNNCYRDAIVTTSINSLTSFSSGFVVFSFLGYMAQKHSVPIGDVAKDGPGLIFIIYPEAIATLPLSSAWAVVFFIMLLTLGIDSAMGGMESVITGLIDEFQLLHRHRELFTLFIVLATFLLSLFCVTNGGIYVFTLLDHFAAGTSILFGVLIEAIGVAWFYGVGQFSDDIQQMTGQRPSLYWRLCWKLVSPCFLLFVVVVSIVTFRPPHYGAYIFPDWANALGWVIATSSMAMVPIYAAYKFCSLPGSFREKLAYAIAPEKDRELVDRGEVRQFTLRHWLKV

| SMILES | inhibition [1] [%] | inhibition [2] [%] | Ratio IC50 (Homo sapiens) | IC50 [3] [nM] | IC50 [4] [nM] | inhibition [5] [%] | inhibition [6] [%] |
| --- | --- | --- | --- | --- | --- | --- | --- |
| CC(C)n1c(=O)n([C@H](CCN(C)C)c2ccccc2)c2c(F)cccc21 | 27 | – | – | – | – | – | – |
| CCn1c(=O)n([C@H](CCNC)c2ccccc2)c2ccccc21 | – | 4 | 98 | 44 | 4310 | – | – |
| CCCn1c(=O)n([C@H](CCNC)c2ccccc2)c2ccccc21 | – | 3 | 97 | 32 | 3100 | – | – |
| CNCC[C@H](c1ccccc1)n1c(=O)n(C)c2ccccc21 | – | 12 | – | 463 | – | 10 | – |
| CNCC[C@@H](c1ccccc1)n1c(=O)n(C(C)C)c2cccc(F)c21 | – | 31 | – | 1050 | 1410 | – | – |
| CCNCC[C@H](c1ccccc1)n1c(=O)n(CC)c2ccccc21 | 27 | – | – | – | – | – | – |
| CNCC[C@H](c1ccccc1)n1c(=O)n(-c2ccccc2)c2ccccc21 | – | 33 | 333 | 9 | 3000 | – | – |
| CNCC[C@@H](c1ccccc1)n1c(=O)n(C(C)C)c2ccccc21 | 21 | – | – | – | – | – | – |
| CNCC[C@H](c1ccccc1)n1c(=O)sc2ccccc21 | – | 36 | 16 | 121 | 1910 | – | – |
| CCn1c(=O)n([C@H](CCN)c2ccccc2)c2ccccc21 | 51 | – | – | – | – | – | – |
| CNCC[C@@H](c1ccccc1)n1c(=O)n(C2CC2)c2ccccc21 | 25 | – | – | – | – | – | – |
| CNCC[C@H](c1ccccc1)n1c(=O)n(C2CC2)c2ccccc21 | – | 7 | 28 | 166 | 4570 | – | – |
| CNCC[C@H](c1ccccc1)n1c(=O)n(C(C)C)c2cccc(F)c21 | – | 5 | 40 | 30 | 1210 | – | – |
| CCn1c(=O)n([C@H](CCNC)c2cccc(F)c2)c2c(F)cccc21 | – | 14 | – | 19 | – | 28 | – |
| CCCn1c(=O)n([C@@H](CCNC)c2ccccc2)c2ccccc21 | – | 5 | – | 627 | 166 | – | – |
| CNCCC(c1ccccc1)n1ccc2ccccc21 (centres undefined) | – | – | 7 | – | – | – | – |
| CNCC[C@H](c1ccccc1)n1c(=O)n(-c2ccccc2F)c2cccc(F)c21 | – | – | 80 | 6 | 483 | – | – |
| CNCC[C@H](c1ccccc1)n1c(=O)n(C2CCCC2)c2ccccc21 | – | 22 | – | 201 | – | 16 | – |
| CNCC[C@H](c1ccccc1)n1c(=O)n(C2CCCCC2)c2ccccc21 | – | 24 | – | 311 | – | 20 | – |
| CNCC[C@@H](c1ccccc1)n1c(=O)n(-c2ccccc2)c2ccccc21 | – | 23 | – | 215 | 273 | – | – |
| CNCC[C@H](c1ccccc1)n1c(=O)n(C(C)C)c2ccccc21 | – | 11 | 450 | 22 | – | 2 | 53 |

Reference: ChEMBL document CHEMBL1152153, “Synthesis and activity of novel 1- or 3-(3-amino-1-phenyl propyl)-1,3-dihydro-2H-benzimidazol-2-ones as selective norepinephrine reuptake inhibitors” (Bioorg Med Chem Lett, 2008)
